# Measurements as given in patent publication US20030083366A1, “Combination chemotherapy” (priority 2001, published 2003).
# Values joined by “and” are separate entries in the source; they are usually repeats but may differ in a detail not shown here. Equal entries are not always repeated. Where two headings read alike, the source gives them in different places.
# Assays:
# [1] = LC-12 squamous cell lung carcinoma implanted subcutaneously in BALB/C mice, chemotherapy study; assay type: in vivo, female BALB/C mice; details: female, mouse, in vivo, tumor-bearing BALB/C mice
# Procedure: (§1) The synergistic combinations provided by this invention have been evaluated in standard chemotherapy studies using female BALB/C mice weighing 18 to 20 g. The test mice were obtained from Charles River Laboratories, Wilmington, Mass. On Day 0 of the test, each mouse was surgically implanted (subcutaneously) with a fragment of LC-12 squamous cell lung carcinoma tumor weighing approximately 30 to 60 mg. The tumor fragments were implanted using a 12 gauge trocar. The mice were weighed weekly, and tumor size (width and length in mm) were measured two times each week with standard calipers. Tumor mass for each animal was calculated according to the formula: [formula]
# (§2) where “a” is width of the tumor in mm, and “b” is the length in mm. Evaluation of anticancer activity was established by the formula T-C, where “T” and “C” are the median time (in days) required for the treated and control (respectively) tumors to reach a predetermined size of about 750 mg (the “evaluation size”). Tumors generally reached size of about 150 to about 200 mg before drug dosing was initiated. Antitumor activity was assessed according to four parameters: (1) partial tumor response (PR); (2) complete tumor response (CR); (3) tumor-free survival (TF); and (4) tumor growth delay (TL). Tumor growth delay is expressed as a T-C value, where T is the median days required for the treatment group tumors to reach a predetermined size (e.g., 750 mg), and C is the median days for the control group tumors to reach this size. From the tumor growth delay value, the net log10 tumor cell kill is calculated as follows:
# (§3) Net log10 tumor cell kill=[(T−C)−Rx]/3.32×Td
# (§4) where Td is the days for the tumor mass to double, and Rx is the total days of treatment. Td is estimated from the best fit straight line from a log-linear plot of the control-group tumors in exponential growth (200 to 800 mg range). The conversion of the T-C values to log10 cell kill is possible because the Td for tumors regrowing after treatment is approximately the same as that for untreated control mice. The net log10 kill value normalizes the efficacy data for tumor growth during treatment regimens of varied duration and provides an estimate of whether an actual regression of the tumor occurred. Positive values indicate that an actual reduction of tumor burden occurred. Negative values indicate the tumor actually grew (although possibly more slowly) during treatment. Tumor-free survivors were excluded from these calculations.
# (§5) Acetyldinaline was suspended in 0.5% aqueous methyl cellulose and administered orally at various dosages in 0.5 mL volumes. Docetaxel was dissolved in 5% ethanol, 5% Tween 80, 90% aqueous saline and administered intravenously at various dosage levels in 0.2 mL injections.
# (§6) The animals were divided into groups of 10 animals each. One group served as controls and received vehicle alone, with no drug treatments. Two groups received oral doses of acetyldinaline alone at a specified level (as shown in Table 3) of active drug (30 mg/kg and 60 mg/kg). […] Three groups received docetaxel alone at doses of 3.5, 5.6, and 9.0 mg/kg. Two groups received acetyldinaline at the recited doses, in combination with 3.5 mg/kg of docetaxel, and another two groups received acetyldinaline at the recited doses in combination with docetaxel at […], and the final two groups received acetyldinaline at the recited doses, in combination until 9.0 mg/kg of docetaxel.
# [2] = test system: LC-12 squamous cell lung carcinoma tumor; assay: as above; assay type: in vivo, female BALB/C mice; details: for antitumor effect of the agents individually: single agent
# Procedure: as §1, §2, §3, §4, §5, §6
# [3] = Phase 1 dose-escalation study of CI-994 in solid tumor patients; assay type: in vivo
# Procedure: In one such study, patients were treated using a dose-escalation scheme that increased both the daily dose and the duration of treatment. The majority of patients had received extensive prior chemotherapy. The maximum-tolerated dose (MTD) was 15 mg/m^2/day when the duration of treatment was 14 consecutive days. To allow more prolonged treatment, lower doses were studied. Using a schedule of 8 weeks of continuous daily therapy, followed by a 2-week ‘drug holiday’, the MTD was 8 mg/m^2/day. […] Blood counts tended to stabilize even with continued treatment and to recover quickly when treatment was stopped.
# [4] = Phase 1 study, once daily high-dose 5-day schedule, relapsed acute leukemia or other hematologic malignancy; assay type: in vivo
# Procedure: An additional Phase 1 study was conducted in patients with relapsed acute leukemia or other hematologic malignancy using a once daily high-dose 5-day dosing schedule. […] Hematologic toxicities cannot be assessed in this patient population. Two patients with AML developed tumor lysis syndrome, resulting in one death. Transient decreases in peripheral white blood cell counts were noted.
# [5] = Pharmacokinetics and food effect in the solid tumor Phase 1 study; assay type: in vivo, patients; details: oral, after a fasting period
# [6] = Route of elimination of radiolabeled drug, monkeys; assay type: in vivo; details: within 24 hours
# Procedure: (§7) Mass balance/route of elimination studies have not been conducted in humans. Animal studies indicate that the principal route of elimination is via renal excretion, with 80% and 62% of radiolabeled drug appearing in the urine of monkeys and rats, respectively, within 24 hours.
# [7] = Route of elimination of radiolabeled drug, rats; assay type: in vivo; details: within 24 hours
# Procedure: as §7
# [8] = Docetaxel 3.5 mg/kg/injection iv, Days 11, 15, 19, alone
# [9] = Docetaxel 5.6 mg/kg/injection iv, Days 11, 15, 19, alone
# [10] = Docetaxel 9.0 mg/kg/injection iv, Days 11, 15, 19, alone
# [11] = CI-994 30.0 mg/kg/injection oral, Days 11-13, 15-17, 19-21, alone
# [12] = CI-994 60 mg/kg/day (MTD), alone
# [13] = CI-994 60.0 mg/kg/injection oral, Days 11-13, 15-17, 19-21, alone
smiles,measurement,setting,value
CC(=O)O[C@@]12CO[C@@H]1C[C@H](O)[C@@]1(C)C(=O)[C@H](O)C3=C(C)[C@@H](OC(=O)[C@H](O)[C@@H](NC(=O)OC(C)(C)C)c4ccccc4)C[C@@](O)([C@@H](OC(=O)c4ccccc4)[C@H]21)C3(C)C [Docetaxel],MTD,"[1]; intravenous, read-out: MTD of docetaxel",9 mg/kg/day
same,% Weight Change,[2]; [8],−7.3%
same,CR (complete response),[2]; [8],0/10
same,Non-specific Deaths,[2]; [8],0/10
same,PR (partial response),[2]; [8],0/10
same,T − C (tumor growth delay to 750 mg),[2]; [8],-1.7 days
same,Tumor Free (Day 105),[2]; [8],0/10
same,% Weight Change,[2]; [9],−11.7%
same,CR (complete response),[2]; [9],0/10
same,Non-specific Deaths,[2]; [9],1/10
same,PR (partial response),[2]; [9],1/10
same,T − C (tumor growth delay to 750 mg),[2]; [9],-0.5 days
same,Tumor Free (Day 105),[2]; [9],0/10
same,% Weight Change,[2]; [10],−16.7%
same,CR (complete response),[2]; [10],0/10
same,Net Log10 Kill,[2]; [10],−0.2 log10
same,Non-specific Deaths,[2]; [10],1/10
same,PR (partial response),[2]; [10],3/10
same,T − C (tumor growth delay to 750 mg),[2]; [10],3.3 days
same,Tumor Free (Day 105),[2]; [10],0/10
same,CR (complete response),"[2]; Docetaxel 9.0 mg/kg/injection iv, Days 11, 15, 19, alone, listed as docetaxel",no complete tumor responses
same,partial tumor responses,"[2]; docetaxel 9 mg/kg/day (MTD), alone",30%
same,antitumor effect of the agents individually,[2],only modest antitumor efforts
"CC(=O)Nc1ccc(C(=O)Nc2ccccc2N)cc1 [CI-994, 4-acetylamino-N-(2′-aminophenyl)-benzamide]",MTD,[1]; oral,60 mg/kg/day
same,partial tumor response,"[2]; CI-994 30 mg/kg/day (50% its MTD), alone",20%
same,% Weight Change,[2]; [11],−5.5%
same,Net Log10 Kill,[2]; [11],−0.5 log10
same,Non-specific Deaths,[2]; [11],0/10
same,PR (partial response),[2]; [11],2/10
same,T − C (tumor growth delay to 750 mg),[2]; [11],4.6 days
same,Tumor Free (Day 105),[2]; [11],0/10
same,CR (complete response),"[2]; CI-994 30.0 mg/kg/injection oral, Days 11-13, 15-17, 19-21, alone, 30 mg/kg",no complete tumor responses and 0/10
same,complete tumor response rate,[2]; [12],40%
same,partial tumor response,[2]; [12],10%
same,mice tumor free when the study ended,"[2]; CI-994 60 mg/kg/day (MTD), alone, 105 days after the last CI-994 treatment",30%
same,% Weight Change,[2]; [13],−10.5%
same,CR (complete response),[2]; [13],4/10
same,Net Log10 Kill,[2]; [13],−0.3 log10
same,Non-specific Deaths,[2]; [13],0/10
same,PR (partial response),[2]; [13],1/10
same,T − C (tumor growth delay to 750 mg),[2]; [13],4.9 days
same,Tumor Free (Day 105),[2]; [13],3/10
same,antitumor effect of the agents individually,[2],only modest antitumor efforts
same,MTD,[3]; 8 weeks of continuous daily therapy followed by a 2-week drug holiday,8 mg/m^2/day
same,Responses,[3]; Phase 1 patients,one partial response in a heavily pretreated patient with NSCLC and a minor response in one patient each with renal cell cancer and NSCLC
same,Other toxicities,"[3]; human, in vivo","nausea, vomiting, diarrhea, anorexia, fatigue, mucositis, headache, dehydration, and increases in liver and renal function test values"
same,cumulative toxicity,"[3]; human, in vivo",no evidence of cumulative toxicity
same,dose-limiting toxicity,"[3]; human, in vivo",thrombocytopenia or neutropenia
same,time of occurrence of dose-limiting toxicity after start of therapy,"[3]; human, in vivo",≤ 1 month
same,maximum-tolerated dose (MTD),"[3]; treatment for 14 consecutive days, patients mostly with extensive prior chemotherapy",15 mg/m^2/day
same,Other adverse events,[4]; in vivo,"nausea, vomiting, hypotension resulting from dehydration, hypocalcemia, headache"
same,dose-limiting toxicity,[4]; in vivo,acute CNS toxicity manifested as sedation and somnolence
same,MTD,[4]; once daily high-dose 5-day dosing schedule,135 mg/m^2/day
same,half-life,"[5]; human, plasma, preliminary results, read-out: terminal elimination half-life (converted)",~15 h
same,maximum plasma CI-994 concentrations with increasing dose levels,[5],less than dose-proportional
same,terminal elimination half-life and apparent clearance rate versus dose,[5],independent of the dose administered
same,radiolabeled drug appearing in the urine,[6],80%
same,radiolabeled drug appearing in the urine,[7],62%
same,Clinical benefit,8 mg/m^2 given orally daily,reported in patients with renal cell cancer
same,Objective responses,8 mg/m^2 given orally daily,seen in patients with nonsmall cell lung cancer
same,dose-limiting toxicity,"in vivo, po",Thrombocytopenia
